PubChem BioAssay AID330 (DTP/NCI, 2004)
Several values for one entry are separate records, joined by “and”; a condition that tells them apart may be missing. Identical values can stand only once. Inconclusive results and toxic doses are left out. The calls were made as follows: active = survival T/C of 150% or more; inactive = T/C below 125% in these data.

Test system: P388 leukemia ip, CD2F1 mice, survival T/C
Test: NCI In Vivo Anticancer Drug Screen. Data for tumor model P388 Leukemia (intraperitoneal) in CD2F1 (CDF1) mice
Details: endpoint: median survival time, higher = longer survival
In short: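 Mice carrying the transplanted tumor received test compound or vehicle. Survival was recorded in each group, and the value is the treated-group measurement divided by that of the vehicle-treated control group.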

[1] = dose: 6.25 mg/kg/injection, schedule: Q01DX009 (ip), vehicle: saline with Tween-80
[2] = dose: 12.5 mg/kg/injection, schedule: Q01DX009 (ip), vehicle: saline with Tween-80
[3] = dose: 50.0 mg/kg/injection, schedule: Q01DX009 (ip), vehicle: saline with Tween-80
[4] = dose: 100.0 mg/kg/injection, schedule: Q01DX009 (ip), vehicle: saline with Tween-80
[5] = dose: 200.0 mg/kg/injection, schedule: Q01DX009 (ip), vehicle: saline with Tween-80
[6] = dose: 60.0 mg/kg/injection, schedule: Q01DX005 (ip), vehicle: Klucel (hydroxypropylcellulose) (HPC)
[7] = dose: 120.0 mg/kg/injection, schedule: Q01DX005 (ip), vehicle: Klucel (hydroxypropylcellulose) (HPC)
[8] = dose: 240.0 mg/kg/injection, schedule: Q01DX005 (ip), vehicle: Klucel (hydroxypropylcellulose) (HPC)
[9] = dose: 50.0 mg/kg/injection, schedule: Q01DX005 (ip), vehicle: saline with Tween-80
[10] = dose: 100.0 mg/kg/injection, schedule: Q01DX005 (ip), vehicle: saline with Tween-80
[11] = dose: 200.0 mg/kg/injection, schedule: Q01DX005 (ip), vehicle: saline with Tween-80
[12] = dose: 50.0 mg/kg/injection, schedule: Q01DX009 (ip), vehicle: saline
[13] = dose: 100.0 mg/kg/injection, schedule: Q01DX009 (ip), vehicle: saline
[14] = dose: 50.0 mg/kg/injection, schedule: Q01DX005 (ip), vehicle: Klucel (hydroxypropylcellulose) (HPC)
[15] = dose: 100.0 mg/kg/injection, schedule: Q01DX005 (ip), vehicle: Klucel (hydroxypropylcellulose) (HPC)
[16] = dose: 200.0 mg/kg/injection, schedule: Q01DX005 (ip), vehicle: Klucel (hydroxypropylcellulose) (HPC)

Measured: T/C

NC(=O)c1nc[nH]c1F
inactive: [1] 102 % of control | [2] 102 % of control | dose: 25.0 mg/kg/injection, schedule: Q01DX009 (ip), vehicle: saline with Tween-80 103 % of control | [3] 104 % of control

CCC(=O)c1c(C)oc2ccc(O)cc12
inactive: dose: 25.0 mg/kg/injection, schedule: Q04DX002 (ip), vehicle: Klucel (hydroxypropylcellulose) (HPC) 94 % of control | dose: 50.0 mg/kg/injection, schedule: Q04DX002 (ip), vehicle: Klucel (hydroxypropylcellulose) (HPC) 89 % of control | dose: 100.0 mg/kg/injection, schedule: Q04DX002 (ip), vehicle: Klucel (hydroxypropylcellulose) (HPC) 91 % of control | dose: 200.0 mg/kg/injection, schedule: Q04DX002 (ip), vehicle: Klucel (hydroxypropylcellulose) (HPC) 90 % of control | dose: 400.0 mg/kg/injection, schedule: Q04DX002 (ip), vehicle: Klucel (hydroxypropylcellulose) (HPC) 90 % of control

O=C(Nc1cccc(Cl)c1)Sc1c(Cl)c(Cl)c(Cl)c(Cl)c1Cl
inactive: [3] 106 % of control | [4] 109 % of control | [5] 112 % of control

CCC[N+](CCC)=c1ccc2nc3c(C)cc(N(CC)CC)cc3sc-2c1
inactive: dose: 0.78 mg/kg/injection, schedule: Q01DX009 (ip), vehicle: saline 108 % of control | dose: 1.56 mg/kg/injection, schedule: Q01DX009 (ip), vehicle: saline 112 % of control | dose: 3.13 mg/kg/injection, schedule: Q01DX009 (ip), vehicle: saline 113 % of control and 118 % of control | dose: 6.25 mg/kg/injection, schedule: Q01DX009 (ip), vehicle: saline 123 % of control | dose: 12.5 mg/kg/injection, schedule: Q01DX009 (ip), vehicle: saline 115 % of control

COc1ccc2c3c1OC1CC(N4CCCC4)=C(c4c([N+](=O)[O-])cc([N+](=O)[O-])cc4[N+](=O)[O-])C4(O)C(C2)N(C)CCC314 (configuration not stated)
inactive: [6] 94 % of control | [7] 94 % of control | [8] 90 % of control

Cn1c(=O)[nH]c(=O)c2nc(-c3ccc(Cl)cc3)cnc21
inactive: dose: 100.0 mg/kg/injection, schedule: Q04DX002 (ip), vehicle: saline with Tween-80 94 % of control | dose: 200.0 mg/kg/injection, schedule: Q04DX002 (ip), vehicle: saline with Tween-80 97 % of control | dose: 400.0 mg/kg/injection, schedule: Q04DX002 (ip), vehicle: saline with Tween-80 97 % of control

CC1=C(C(=O)Nc2ccc(C)cc2C)C(c2cccc([N+](=O)[O-])c2)C(C(=O)Nc2ccc(C)cc2C)=C(C)N1
inactive: dose: 7.5 mg/kg/injection, schedule: Q01DX005 (ip), vehicle: Klucel (hydroxypropylcellulose) (HPC) 100 % of control | dose: 15.0 mg/kg/injection, schedule: Q01DX005 (ip), vehicle: Klucel (hydroxypropylcellulose) (HPC) 94 % of control | dose: 30.0 mg/kg/injection, schedule: Q01DX005 (ip), vehicle: Klucel (hydroxypropylcellulose) (HPC) 98 % of control

O=C(NC(Cc1cccs1)C(=O)O)c1ccccc1 (configuration not stated)
inactive: dose: 25.0 mg/kg/injection, schedule: Q01DX009 (ip), vehicle: other 102 % of control | dose: 50.0 mg/kg/injection, schedule: Q01DX009 (ip), vehicle: other 96 % of control | dose: 100.0 mg/kg/injection, schedule: Q01DX009 (ip), vehicle: other 102 % of control

Cn1c(=O)c2c(ncn2N)n(C)c1=O
inactive: [6] 111 % of control | [7] 102 % of control | [8] 107 % of control

COc1ccc([N+](=O)[O-])cc1NC(=O)C1C(=O)C(=O)N(c2cc([N+](=O)[O-])ccc2OC)C1=O (configuration not stated)
inactive: dose: 50.0 mg/kg/injection, schedule: Q01DX009 (ip), vehicle: Klucel (hydroxypropylcellulose) (HPC) 100 % of control | dose: 100.0 mg/kg/injection, schedule: Q01DX009 (ip), vehicle: Klucel (hydroxypropylcellulose) (HPC) 100 % of control | dose: 200.0 mg/kg/injection, schedule: Q01DX009 (ip), vehicle: Klucel (hydroxypropylcellulose) (HPC) 115 % of control

CSC(=O)Nc1ccc(C)c(NC(=O)SC)c1
inactive: [9] 94 % of control | [10] 100 % of control | [11] 100 % of control

CCN(CC)CCNc1c(OC)c(OC)cc2nccnc12
inactive: dose: 25.0 mg/kg/injection, schedule: Q01DX005 (ip), vehicle: suspension in saline 98 % of control | dose: 50.0 mg/kg/injection, schedule: Q01DX005 (ip), vehicle: suspension in saline 98 % of control | dose: 100.0 mg/kg/injection, schedule: Q01DX005 (ip), vehicle: suspension in saline 98 % of control

COC(=O)C(=Cc1ccc(OC)cc1)C(=O)OC
inactive: [12] 95 % of control | [13] 95 % of control | dose: 200.0 mg/kg/injection, schedule: Q01DX009 (ip), vehicle: saline 92 % of control

O=[N+]([O-])c1cc2cc(Cl)c3ccccc3c2o1
inactive: [14] 100 % of control | [15] 102 % of control | [16] 102 % of control

O=NNc1ncccn1
inactive: dose: 3.12 mg/kg/injection, schedule: Q01DX009 (ip), vehicle: water 96 % of control | dose: 6.25 mg/kg/injection, schedule: Q01DX009 (ip), vehicle: water 105 % of control | dose: 12.5 mg/kg/injection, schedule: Q01DX009 (ip), vehicle: water 93 % of control | dose: 25.0 mg/kg/injection, schedule: Q01DX009 (ip), vehicle: water 101 % of control | dose: 50.0 mg/kg/injection, schedule: Q01DX009 (ip), vehicle: water 102 % of control | dose: 100.0 mg/kg/injection, schedule: Q01DX009 (ip), vehicle: water 93 % of control

CN(Cc1ccccc1)C1=CC(=O)C(N(C)Cc2ccccc2)=CC1=O
inactive: [9] 105 % of control | [10] 115 % of control | [11] 101 % of control

CN(C)CCNc1cccc2oc3ccc(O)cc3c(=O)c12
inactive: dose: 25.0 mg/kg/injection, schedule: Q01DX005 (ip), vehicle: Klucel (hydroxypropylcellulose) (HPC) 101 % of control | [14] 107 % of control | [15] 110 % of control | [16] 114 % of control

COc1ccc(-c2sc(-c3ccccc3)nc2O)cc1
inactive: [3] 89 % of control | [4] 89 % of control | [5] 92 % of control

O=[N+]([O-])c1ccc(NN=C2CCCCC2)c([N+](=O)[O-])c1
inactive: dose: 25.0 mg/kg/injection, schedule: Q04DX003 (ip), vehicle: Klucel (hydroxypropylcellulose) (HPC) 103 % of control | dose: 50.0 mg/kg/injection, schedule: Q04DX003 (ip), vehicle: Klucel (hydroxypropylcellulose) (HPC) 104 % of control | dose: 100.0 mg/kg/injection, schedule: Q04DX003 (ip), vehicle: Klucel (hydroxypropylcellulose) (HPC) 105 % of control | dose: 200.0 mg/kg/injection, schedule: Q04DX003 (ip), vehicle: Klucel (hydroxypropylcellulose) (HPC) 112 % of control

CC1CC(C)(C)N=C(Cc2ccccc2)O1 (configuration not stated)
inactive: [3] 100 % of control | [4] 101 % of control | [5] 89 % of control

C/C(=N\NC(=S)N1CCCCC1)c1ccccn1
inactive: [1] 98 % of control | [2] 100 % of control

CCCCCCCC/C=C\CCCCCCCC[N+]1([O-])CCOCC1
inactive: [12] 102 % of control | [13] 116 % of control

O=P(c1ccccc1)(c1ccccc1)c1ccccc1.O=P(c1ccccc1)(c1ccccc1)c1ccccc1.S=C=[N][Sn]([N]=C=S)([N]=C=S)[c]1ccccc1
inactive: dose: 100.0 mg/kg/injection, schedule: Q04DX003 (ip), vehicle: saline 105 % of control | dose: 200.0 mg/kg/injection, schedule: Q04DX003 (ip), vehicle: saline 108 % of control | dose: 400.0 mg/kg/injection, schedule: Q04DX003 (ip), vehicle: saline 100 % of control
